Reference: patent US8877809B2, “Compositions and methods for treating macular degeneration” (The Trustees of Columbia University in the City of New York, priority 2007, dated 2014)
Entries after “also recorded” stand apart in the source; their conditions may differ. Read-outs that look alike come from different tables or passages of the source.

How the values were obtained:
ABCR knockout mice = details: cited from earlier work
[1] = mouse, in vivo; cited from earlier work
users = details: cited from earlier work
CD IGS rats = assay: A2E-lipofuscin in wild-type CD IGS rats after 8 weeks of IP retinal dosing, HPLC; type: in vivo; details: for Total A2E-lipofuscin versus retinal group (FIG. 7A, in words): C20-D3-retinal alone, Fenretinide or TDH given with retinal; for Less A2E-lipofuscin compared to animals administered only all-trans-retinal: all-trans-retinal 3 mg IP for 8 weeks plus drug at roughly 1.5 mg/day/animal in drinking water
Method: Animals treated with retinal had the greatest amount of A2E-lipofuscin (normalized to 100%).
45-50 day old, female, CD IGS rats (Charles River, Wilmington, Mass.) were divided up into four groups of three. Three of these groups were administered all-trans-retinal and the one group was given C20-D3-all-trans-retinal (IP injection in a 10% solution of Tween-20 in saline) at 3 mg, bi- or tri-weekly for 8 weeks (20, 3 mg injections total). Thus, at the end of the 8-week period the animals received roughly 20 times their original stores of vitamin A, as retinal or C20-D3-all-trans-retinal. Massive dosing with C20-D3-all-trans-retinal quickly replaces normal vitamin A stores with the C20-D3-analog. Of the three groups administered all-trans-retinal, one group was given Fenretinide (50) and another TDH (23), at doses of roughly 1.5 mg/day/animal (both supplied in the drinking water emulsified with 1 g/L of Nu-rice (RIBUS, Inc, St. Louis, Mo.)).
At the end of the 8 weeks, RPE, A2E-lipofuscin was evaluated in each of the four groups by HPLC as described in Example 3 and in FIG. 7. A2E-lipofuscin pigments were greatest in the animals receiving all-trans-retinal (the control group).

CD-1 (ICR) mice = assay: A2E-lipofuscin in eyes of CD-1 (ICR) mice after IP retinal dosing, HPLC; type: in vivo; details: 1.5 mg IP bi-weekly for 6 weeks; HPLC at 445 nm
Method: C20-D3-all-trans-retinal was administered to mice in order to measure its ability to form A2E in the eye compared to all-trans-retinal. […], 8-week old, CD-1 (ICR) mice (from Charles River, Wilmington, Mass.) were divided up into two groups of five and administered 1.5 mg of ether all-trans-retinal or C20-D3-all-trans-retinal by intraperitoneal injection (IP) injection in a 10% solution of Tween-20 in saline bi-weekly for 6 weeks. At the end of this six-week period, each mouse was given a total of 60,000 I.U.(18 mg) or about 28-times the original amount of vitamin A in the mouse's body. Massive dosing with C20-D3-all-trans-retinal quickly replaces normal vitamin A stores with the C20-D3-analog. And, the injected retinal rapidly accumulates in the eye (rod outer segments), where at high enough concentrations it will react to form lipofuscin pigments. This is similar to the accumulation of all-trans-retinal in the ABCR^−/− mice and in patents with Stargardt's disease.
At the end of the six week period, the eyes were dissected, the retinas and eyecups pooled into groups of 4 or 5, and homogenated with 50 μL ethanol. The homogenate was centrifuged at 13,000 rpm for 5 minutes and 40 μL of the supernatant was drawn off and analyzed for A2E-lipofuscin by HPLC. Retinol and retinol esters were analyzed at 325 nm and A2E-lipofuscin was measured at 445 nm.

[2] = In vitro A2E formation from retinal, ethanolamine and acetic acid, followed by HPLC; details: mass spectrometry of the reaction mixture after 50 hours
ABCR−/− mice [3] = assay: Electron microscopy of RPE lipofuscin deposits in ABCR-/- mice raised exclusively on the diet; type: in vivo; details: 5.5-6 month old mice raised only on the diet
Description: Due to the uncertainty in distinguishing lipofuscin from melanin bodies. Comparisons were made between the numbers of all dark, electron dense bodies found in the RPE between mice on the retinol acetate diet vs. those on the C20-D3-all-trans-retinol acetate diet. In addition to the electron dense lipofuscin and melanin bodies, RPE phagosomes, mitochondria, and lipid droplets are also present but were ultrastructurally distinct.
In order to measure the amount lipofuscin granules in the eyes of the above mice on a normal diet vs. the diet containing C20D3-all-trans-retinol acetate, eyecups from both groups of mice (2 from each group) were evaluated by electron microscopy.

ABCR−/− mice [4] = assay: Extractable lipofuscin pigments in eyecups of ABCR-/- mice raised exclusively on the diet, HPLC; type: in vivo; details: 5.5-6 month old mice raised only on the diet, offspring of mothers on the same diet
Method: On the other hand, lipofuscin pigments were undetectable in mice raised on the C20-D3-all-trans-retinol acetate diet.
As in Example 4, two groups of four ABCR^−/− mice where raised either on diets containing C20-D3-all-trans-retinol acetate or all-trans-retinol acetate. However, in this example the mice were offspring of mothers on the same diet, and thus where raised only on their respective vitamin A analogs. At 5.5-6 months of age the mice were sacrificed and the eyecups were analyzed for lipofuscin pigments as described in Example 4. The results are shown FIG. 5.

ABCR−/− mice [5] = assay: A2E-lipofuscin in eyecups of ABCR-/- mice after 3-month diet, HPLC; type: in vivo; details: diet with 20,000 I.U./kg for 3 months, from 2 months of age; HPLC at 445 nm
Method: C20-D3-all-trans-retinol acetate was prepared according to the literature procedure (47) and was administered to ABCR^−/− mice (48, 49) in order to measure its ability to lead to lipofuscin compared to that of all-trans-retinol acetate. Eight 2-month old, ABCR^−/− mice raised on a standard rodent diet were then fed a diet containing 20,000 I.U./kg of either C20-D3-all-trans-retinol acetate or all-trans-retinol acetate for 3 months.
At the end of the […] period, the eyes were dissected, eyecups pooled into groups of six and homogenated with 80 μL ethanol. The homogenate was centrifuged at 13000 rpm for 5 min and 30 μL of the supernatant was drawn off and analyzed for A2E-lipofuscin by HPLC. A2E-lipofuscin was measured at 445 nm. […] This percentage of A2E reduction is on the same order of magnitude observed in similar studies in ABCR^−/− mice with the visual cycle antagonist TDH, TDT, Ret-NH2, 13-cis-retinoic, acid and fenretinide. However, in this example A2E reduction is achieved with doses of C20-D3-all-trans-retinol acetate that are 11- to 40-times less.

[6] = In vitro A2E formation from C20-fluorinated retinal, monitored by HPLC; details: C20 hydrogens replaced by fluorine; disappearance of retinal and absence of fluorinated A2E by HPLC
Description: In the present invention, when the C20 hydrogens of all-trans-retinoids are replaced by fluorine atoms (F3), the formation of A2E is eliminated, as measured by monitoring the disappearance of C20-F3-all-trans-retinal and the absence of the corresponding fluorinated A2E by HPLC. A2E and the ATR-dimer are believed to be formed in vivo by a multi-step reaction sequence involving two molecules of all-trans-retinal, as shown in FIG. 2. In the first step, all-trans-retinal condenses with a biological amine to form the imine. This imine is then thought to undergo a hydrogen shift involving a hydrogen atom at carbon C20 (step 2). Subsequent reaction (step 3) with another molecule of retinal either by 1,2- or 1,4-addition followed by cyclizations (step 4) yields A2E or ATR-dimer precursors, respectively. A2E is subsequently formed after spontaneous oxidation in air, and ATR dimer, after elimination (step 4).
It has been shown that replacing certain C—H bonds with C—F bonds in retinal (i.e., C20-F1-3-retinal) hampers the reactivity of all-trans-retinal, and, thus slows or eliminates the formation of A2E in vitro. By replacing hydrogen atoms at C20 with fluorine, the hydrogen shift step is blocked. Accordingly, C20-F1-3-retinal is expected to appreciably slow A2E and ATR-dimer biosynthesis.

patients [7] = details: oral 600 or 900 mg/m2 bid in 6-week cycles, cited from earlier work
patients [8] = details: 200 mg/day for five years, 1,432 patients; cited from earlier work
[9] = 2-month-old ABCR knockout mice, 50 mg/kg bi-weekly for two months

In the case of `CC1=C(/C=C/C(C)=C/C=C/C(C)=C\C(=O)O)C(C)(C)CCC1` [13 cis-retinoic acid], the “Lipofuscin formation in the RPE cell layer judged by electron microscopy” value (ABCR knockout mice; 2-month-old ABCR knockout mice, 20 mg/kg/day for two months) is listed as “decrease in lipofuscin formation”, the “Decrease in A2E formation compared to control ABCR knockout mice” value (“Decrease … to control ABCR knockout mice” for short) (ABCR knockout mice; 3-month-old ABCR knockout mice, 40 mg/kg/day for one month) is listed as 40-50% and the “Effect on dark adaptation when administered” value (“Effect on dark adaptation” for short) [1] is listed as “delayed dark adaptation”. The “Share of users with back pain, muscle and joint pain, allergic reaction, dizziness, hair loss, dry eyes, decreased night vision, low blood counts and others” value (users; in vivo) was 10-29% and the “Share of users with headache, fever, dry skin, dry mucous membranes, bone pain, nausea and vomiting, rash, mouth sores, itching, sweating, eyesight changes” value (users; larger doses used to treat cancer) was “more than 30%”.
In the case of `[2H]C([2H])([2H])C(/C=C/C=C(C)/C=C/C1=C(C)CCCC1(C)C)=C\C=O` [C20-D3-all-trans-retinal], the “Less A2E-lipofuscin than animals receiving all-trans-retinal” value (CD IGS rats; 3 mg IP bi- or tri-weekly for 8 weeks, given instead of all-trans-retinal) is reported as 35%, the “Total A2E-lipofuscin versus retinal group (FIG. 7A, in words)” value (CD IGS rats) is reported as “less A2E-lipofuscin” and the “Less A2E-lipofuscin compared to mice administered all-trans-retinal” value (CD-1 (ICR) mice) is reported as 68%. For the same molecule, the “Hydrogen deuterium exchange during the reaction” value [2] was “not observed”.
For `[2H]C([2H])([2H])C(/C=C/C=C(C)/C=C/C1=C(C)CCCC1(C)C)=C\COC(C)=O` [C20-D3-all-trans-retinol acetate], the “Electron dense (lipofuscin) bodies in the RPE versus retinol acetate diet” value (ABCR−/− mice [3]) was “less electron dense lipofuscin deposits; also recorded: considerably less electron dense bodies”, the “Lipofuscin pigments extracted from eyecups (HPLC)” value (“Lipofuscin pigments extracted” below) (ABCR−/− mice [4]) was “undetectable” and the “Less A2E-lipofuscin compared to mice on a diet of all-trans-retinol acetate” value (ABCR−/− mice [5]) was 44-58%.
In the case of `CC(C=CC1=C(C)CCCC1(C)C)=CC=CC(=CC=O)C(F)(F)F` [C20-F3-all-trans-retinal], the “Formation of A2E” value [6] is reported as “eliminated”.
For `CC1=C(/C=C/C(C)=C/C=C/C(C)=C/C(=O)Nc2ccc(O)cc2)C(C)(C)CCC1` [Fenretinide, N-(4-hydroxyphenyl)retinamide], the “Patients with mild to moderate adverse effects possibly linked to the drug” value (patients [7]; 45 patients) is listed as 95%, the “Grade 2 toxicities reported as possibly linked to treatment” value (patients [7]) is listed as “seizures and confusion” and the “Total A2E-lipofuscin versus retinal group (FIG. 7A, in words)” value (CD IGS rats) is listed as “less A2E-lipofuscin”. For the same molecule, the “Less A2E-lipofuscin compared to animals administered only all-trans-retinal” value (CD IGS rats) was 49%, the “Decrease in A2E formation compared to control ABCA4 knockout mice” value (ABCR knockout mice; 2-month-old ABCA4 knockout mice, 20 mg/kg/day for one month) was 40-50% and the “Effect on dark adaptation” value [1] was “delayed dark adaptation”. For the same molecule, the “Dermatologic disorders, incidence” value (patients [8]) was 16%, the “Diminished dark adaptation, cumulative incidence” value (patients [8]) was 16% and the “Disorders of the ocular surface, incidence” value (patients [8]) was 8%. The “Gastrointestinal symptoms, incidence” value (patients [8]) was 8%.
For `CC1=C(/C=C/C(C)=C/C=C/C(C)=C/CN)C(C)(C)CCC1` [Ret-NH2, All-trans-retinylamine], the “Decrease in A2E formation compared to control ABCA4 knockout mice” value (ABCR knockout mice; 1-month-old ABCA4 knockout mice, 40 mg/kg bi-weekly for two months) is listed as “about 50%” and the “Effect on dark adaptation” value [1] is listed as “severe delayed dark adaptation”.
For `CCCCCCCCCCCCCCCCNC/C=C(\C)CC/C=C(\C)CCC=C(C)C` [TDH, (2E,6E)-N-hexadecyl-3,7,11-trimethyldodeca-2,6,10-trienamine], the “Total A2E-lipofuscin versus retinal group (FIG. 7A, in words)” value (CD IGS rats) is given as “less A2E-lipofuscin”, the “Less A2E-lipofuscin compared to animals administered only all-trans-retinal” value (CD IGS rats) is given as 31% and the “Decrease … to control ABCR knockout mice” value (ABCR knockout mice; [9]) is given as “about 50%”. For the same molecule, the “Effect on dark adaptation” value [1] was “delayed dark adaptation”.
In the case of `CCCCCCCCCCC(=O)/C=C(\C)CC/C=C(\C)CCC=C(C)C` [TDT, (12E,16E)-13,17,21-trimethyldocosa-12,16,20-trien-11-one], the “Decrease … to control ABCR knockout mice” value (ABCR knockout mice; [9]) is given as 50-85% and the “Effect on dark adaptation” value [1] is given as “delayed dark adaptation”.
For `CC1=C(/C=C/C(C)=C/C=C/C(C)=C/C=O)C(C)(C)CCC1` [all-trans-retinal], the “Total A2E, HPLC peak area at 445 nm, normalized” value (CD IGS rats; FIG. 7A, three female rats per group) was 100%.
In the case of all-trans-retinol acetate, the “Lipofuscin pigments extracted” value (ABCR−/− mice [4]) is reported as “detectable” and the “Lipofuscin pigments extracted” value (ABCR−/− mice [4]; listed as retinol acetate) is reported as “considerable accumulation of lipofuscin pigments”.
